How the values were obtained:
NMDAR (1A/2B) = NMDAR (1A/2B) (Homo sapiens, UniProt Q05586+Q13224); assay: SAFETYscan Ion Channel NMDAR (1A/2B) Opener; type: cell-based
Excerpt: (§1) Supplement jm3c00155_si_002.xlsx, sheet "SAFETYScan" | column: RC50 (uM); Max Response

HRH2 = HRH2 (Homo sapiens, UniProt P25021); assay: SAFETYscan cAMP HRH2 Antagonist; type: cell-based
Excerpt: (§2) Supplement jm3c00155_si_002.xlsx, sheet "SAFETYScan" | column: RC50 (uM); Hill; Max Response

HRH1 [1] = biological target: T1, HRH1 (Homo sapiens, UniProt P35367); assay: SAFETYscan Calcium Flux HRH1 Agonist; type: cell-based
T1 sequence (P35367 whole entry): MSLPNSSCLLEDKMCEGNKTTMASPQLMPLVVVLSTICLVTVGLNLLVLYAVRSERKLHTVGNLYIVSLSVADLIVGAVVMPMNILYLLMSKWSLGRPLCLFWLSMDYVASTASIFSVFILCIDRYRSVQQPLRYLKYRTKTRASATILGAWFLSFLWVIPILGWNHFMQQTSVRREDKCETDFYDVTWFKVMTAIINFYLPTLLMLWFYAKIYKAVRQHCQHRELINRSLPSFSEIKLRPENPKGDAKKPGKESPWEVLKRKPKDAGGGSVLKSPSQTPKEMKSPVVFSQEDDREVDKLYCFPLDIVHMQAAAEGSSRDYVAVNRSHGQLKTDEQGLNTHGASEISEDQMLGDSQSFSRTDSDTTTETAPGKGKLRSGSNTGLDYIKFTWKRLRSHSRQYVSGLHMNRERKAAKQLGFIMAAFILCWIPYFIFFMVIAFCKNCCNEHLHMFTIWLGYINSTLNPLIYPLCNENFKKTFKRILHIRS
Excerpt: as §1

NAV1.5 = NAV1.5 (Homo sapiens, UniProt Q14524); assay: SAFETYscan Ion Channel NAV1.5 Blocker; type: cell-based
Excerpt: as §1

ADRA1A = biological target: T2, ADRA1A (Homo sapiens, UniProt P35348); assay: SAFETYscan Calcium Flux ADRA1A Agonist; type: cell-based
T2 sequence (P35348 1-466): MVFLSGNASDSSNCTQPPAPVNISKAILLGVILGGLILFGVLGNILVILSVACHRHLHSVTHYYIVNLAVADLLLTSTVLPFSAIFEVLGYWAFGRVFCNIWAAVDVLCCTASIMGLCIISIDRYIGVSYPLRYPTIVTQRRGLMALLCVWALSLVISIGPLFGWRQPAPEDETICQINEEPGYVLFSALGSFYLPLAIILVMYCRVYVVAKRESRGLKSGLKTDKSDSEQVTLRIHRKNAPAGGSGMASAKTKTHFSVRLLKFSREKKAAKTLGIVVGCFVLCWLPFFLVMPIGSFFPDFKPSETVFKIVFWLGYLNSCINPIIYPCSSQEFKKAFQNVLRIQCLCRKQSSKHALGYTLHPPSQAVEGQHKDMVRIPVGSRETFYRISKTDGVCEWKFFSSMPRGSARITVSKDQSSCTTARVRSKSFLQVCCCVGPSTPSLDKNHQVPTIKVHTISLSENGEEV
Excerpt: as §1

NET = NET (Homo sapiens, UniProt P23975); assay: SAFETYscan Transporter NET Blocker; type: cell-based
Excerpt: as §1

HT = assay: 14-day cell proliferation assay, HT; type: cell-based; details: Homo sapiens, 14-day assay
Excerpt: DMSO final concentration.
After a short centrifugation the
(1st emission filter) / 450-80 nm (2nd emission filter). The % inhibition at each test concentration was […]
sigmoidal four-parameter logistic fit equation.
2.3 Cell proliferation assay
Aldrich) supplemented with 10% FBS (Gibco). Compounds were initially dispensed into 96-well U-bottom […]
transferred onto the cells.
Assay plates containing cells
(Beckman Coulter). The volume of medium containing 2500 cells in the control well was calculated and this volume of cells was transferred from every well of the assay plates to the corresponding well of the fresh plates containing compound. After 14 days, CellTiter Glo reagent (Promega) was added to the medium in each well of the assay plate at a ratio of 1:2, mixed on a plate shaker, then incubated at room temperature for 10 minutes. Luminescence was measured using an Envision plate reader (Perkin Elmer) and the relative luminescence at each compound concentration, compared to DMSO alone, was calculated. GI50 were determined using a 4-parameter curve fit in Dotmatics (Bishops Stortford, UK).

COX1 = COX1 (Homo sapiens, UniProt P23219); assay: SAFETYscan Enzymatic COX1 Inhibitor; type: biochemical
Chain of COX1 (P23219 24-599): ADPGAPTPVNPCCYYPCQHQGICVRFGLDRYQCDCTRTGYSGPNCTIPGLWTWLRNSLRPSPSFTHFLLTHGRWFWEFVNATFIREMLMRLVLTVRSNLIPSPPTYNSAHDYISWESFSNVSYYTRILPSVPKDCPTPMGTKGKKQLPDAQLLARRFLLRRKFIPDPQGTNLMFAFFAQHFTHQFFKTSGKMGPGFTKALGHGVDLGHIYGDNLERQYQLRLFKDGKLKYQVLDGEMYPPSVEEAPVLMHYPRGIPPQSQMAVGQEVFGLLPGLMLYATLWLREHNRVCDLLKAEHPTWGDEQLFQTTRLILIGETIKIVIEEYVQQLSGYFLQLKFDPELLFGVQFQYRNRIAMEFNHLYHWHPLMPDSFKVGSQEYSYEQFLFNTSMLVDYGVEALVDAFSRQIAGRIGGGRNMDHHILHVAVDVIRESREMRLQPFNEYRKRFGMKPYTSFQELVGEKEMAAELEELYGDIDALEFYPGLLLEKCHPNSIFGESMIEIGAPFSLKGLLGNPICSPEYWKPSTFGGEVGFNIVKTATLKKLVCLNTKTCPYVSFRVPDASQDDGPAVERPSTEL
Excerpt: as §2

OPRD1 = OPRD1 (Homo sapiens, UniProt P41143); assay: SAFETYscan cAMP OPRD1 Antagonist; type: cell-based
Chain of OPRD1 (P41143 whole entry): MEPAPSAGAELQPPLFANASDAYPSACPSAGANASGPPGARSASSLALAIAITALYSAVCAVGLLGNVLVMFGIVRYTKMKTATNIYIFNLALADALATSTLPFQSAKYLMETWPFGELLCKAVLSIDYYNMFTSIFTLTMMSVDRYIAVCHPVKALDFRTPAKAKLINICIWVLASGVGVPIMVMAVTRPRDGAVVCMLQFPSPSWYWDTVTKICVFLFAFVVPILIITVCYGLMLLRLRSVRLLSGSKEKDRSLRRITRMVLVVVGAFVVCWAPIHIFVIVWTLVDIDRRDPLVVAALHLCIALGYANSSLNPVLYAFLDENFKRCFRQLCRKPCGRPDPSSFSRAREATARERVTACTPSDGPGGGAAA
Excerpt: as §1

ADRB1 = ADRB1 (Homo sapiens, UniProt P08588); assay: SAFETYscan cAMP ADRB1 Agonist; type: cell-based
Excerpt: as §1

CHRM2 = biological target: T3, CHRM2 (Homo sapiens, UniProt P08172); assay: SAFETYscan cAMP CHRM2 Antagonist; type: cell-based
T3 sequence (P08172 1-466): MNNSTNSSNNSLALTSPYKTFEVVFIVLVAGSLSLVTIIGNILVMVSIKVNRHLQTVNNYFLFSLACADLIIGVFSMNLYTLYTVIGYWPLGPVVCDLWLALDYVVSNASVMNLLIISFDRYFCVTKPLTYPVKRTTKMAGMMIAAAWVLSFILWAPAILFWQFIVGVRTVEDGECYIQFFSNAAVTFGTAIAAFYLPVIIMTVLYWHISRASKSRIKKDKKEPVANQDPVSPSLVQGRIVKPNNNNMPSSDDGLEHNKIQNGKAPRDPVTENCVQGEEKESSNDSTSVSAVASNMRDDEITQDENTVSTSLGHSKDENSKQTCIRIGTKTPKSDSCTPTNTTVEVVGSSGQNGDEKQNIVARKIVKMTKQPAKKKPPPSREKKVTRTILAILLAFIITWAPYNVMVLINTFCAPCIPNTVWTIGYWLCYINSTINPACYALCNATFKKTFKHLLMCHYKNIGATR
Excerpt: as §1

CHRM3 = CHRM3 (Homo sapiens, UniProt P20309); assay: SAFETYscan Calcium Flux CHRM3 Antagonist; type: cell-based
Excerpt: as §1

HTR1B = HTR1B (Homo sapiens, UniProt P28222); assay: SAFETYscan cAMP HTR1B Antagonist; type: cell-based
Chain of HTR1B (P28222 whole entry): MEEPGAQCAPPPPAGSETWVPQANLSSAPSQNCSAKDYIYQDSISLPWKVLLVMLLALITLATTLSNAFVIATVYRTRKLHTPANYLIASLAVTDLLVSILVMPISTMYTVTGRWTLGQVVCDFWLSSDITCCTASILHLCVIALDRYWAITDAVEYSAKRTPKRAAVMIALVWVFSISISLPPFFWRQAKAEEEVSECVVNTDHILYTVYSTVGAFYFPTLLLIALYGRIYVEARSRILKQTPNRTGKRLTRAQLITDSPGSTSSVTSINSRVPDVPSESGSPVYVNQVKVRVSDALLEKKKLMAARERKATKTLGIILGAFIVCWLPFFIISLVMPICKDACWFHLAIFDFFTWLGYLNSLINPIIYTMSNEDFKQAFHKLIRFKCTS
Excerpt: as §1

GABAA = GABAA (Homo sapiens, UniProt P14867+P18507+P47870); assay: SAFETYscan Ion Channel GABAA Opener; type: cell-based
Chain of GABAA (P14867 28-456): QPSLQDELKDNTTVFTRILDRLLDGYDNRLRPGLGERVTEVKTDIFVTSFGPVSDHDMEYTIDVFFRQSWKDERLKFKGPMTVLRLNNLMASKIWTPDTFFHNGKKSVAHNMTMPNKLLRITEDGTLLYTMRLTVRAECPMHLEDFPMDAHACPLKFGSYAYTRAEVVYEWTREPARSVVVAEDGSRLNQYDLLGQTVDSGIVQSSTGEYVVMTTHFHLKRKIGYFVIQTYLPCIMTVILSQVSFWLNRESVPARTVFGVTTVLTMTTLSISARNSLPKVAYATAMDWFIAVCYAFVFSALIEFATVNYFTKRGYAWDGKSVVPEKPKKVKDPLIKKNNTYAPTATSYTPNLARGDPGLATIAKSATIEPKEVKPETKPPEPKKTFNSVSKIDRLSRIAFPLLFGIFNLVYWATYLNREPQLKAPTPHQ
Chain of GABAA (P47870 26-512): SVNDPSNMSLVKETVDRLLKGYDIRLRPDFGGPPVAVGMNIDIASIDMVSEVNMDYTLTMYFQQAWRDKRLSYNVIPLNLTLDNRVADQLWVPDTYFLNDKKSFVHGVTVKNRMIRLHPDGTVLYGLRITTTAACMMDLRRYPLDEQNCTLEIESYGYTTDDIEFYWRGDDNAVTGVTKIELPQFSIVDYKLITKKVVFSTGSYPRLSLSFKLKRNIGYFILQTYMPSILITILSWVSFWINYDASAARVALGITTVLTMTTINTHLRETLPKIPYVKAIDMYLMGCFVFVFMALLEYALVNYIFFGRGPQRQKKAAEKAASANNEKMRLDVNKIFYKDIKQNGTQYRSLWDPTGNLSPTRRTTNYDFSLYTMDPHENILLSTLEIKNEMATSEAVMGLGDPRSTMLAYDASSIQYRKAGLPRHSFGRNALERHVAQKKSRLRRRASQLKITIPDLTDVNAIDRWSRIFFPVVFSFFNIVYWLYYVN
Chain of GABAA (P18507 40-475): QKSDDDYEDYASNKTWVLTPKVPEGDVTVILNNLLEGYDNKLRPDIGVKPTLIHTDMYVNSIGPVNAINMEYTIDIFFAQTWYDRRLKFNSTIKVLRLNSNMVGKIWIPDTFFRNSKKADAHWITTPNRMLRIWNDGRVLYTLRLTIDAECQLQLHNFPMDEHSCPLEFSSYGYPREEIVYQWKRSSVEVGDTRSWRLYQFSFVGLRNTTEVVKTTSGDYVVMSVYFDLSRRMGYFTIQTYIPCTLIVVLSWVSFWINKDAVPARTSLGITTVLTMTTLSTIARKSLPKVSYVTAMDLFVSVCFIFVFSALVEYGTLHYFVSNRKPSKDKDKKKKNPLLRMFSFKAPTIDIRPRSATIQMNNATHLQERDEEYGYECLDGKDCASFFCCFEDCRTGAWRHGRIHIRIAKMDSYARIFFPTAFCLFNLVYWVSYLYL
Excerpt: as §1

HRH1 [2] = biological target: T1, HRH1; assay: SAFETYscan Calcium Flux HRH1 Antagonist; type: cell-based
Excerpt: as §1

Chain of HRH2 (P25021 whole entry): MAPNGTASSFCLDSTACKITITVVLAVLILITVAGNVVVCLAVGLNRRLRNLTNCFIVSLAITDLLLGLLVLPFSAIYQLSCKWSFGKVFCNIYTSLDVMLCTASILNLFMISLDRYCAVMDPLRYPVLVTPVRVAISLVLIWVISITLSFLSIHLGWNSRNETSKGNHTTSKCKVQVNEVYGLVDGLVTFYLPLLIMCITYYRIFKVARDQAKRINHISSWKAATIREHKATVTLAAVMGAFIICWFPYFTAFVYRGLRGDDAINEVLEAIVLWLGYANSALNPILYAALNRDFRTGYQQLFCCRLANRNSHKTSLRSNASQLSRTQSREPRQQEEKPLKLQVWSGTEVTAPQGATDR
Chain of NMDAR (1A/2B) (Q13224 27-1484, other chains not shown): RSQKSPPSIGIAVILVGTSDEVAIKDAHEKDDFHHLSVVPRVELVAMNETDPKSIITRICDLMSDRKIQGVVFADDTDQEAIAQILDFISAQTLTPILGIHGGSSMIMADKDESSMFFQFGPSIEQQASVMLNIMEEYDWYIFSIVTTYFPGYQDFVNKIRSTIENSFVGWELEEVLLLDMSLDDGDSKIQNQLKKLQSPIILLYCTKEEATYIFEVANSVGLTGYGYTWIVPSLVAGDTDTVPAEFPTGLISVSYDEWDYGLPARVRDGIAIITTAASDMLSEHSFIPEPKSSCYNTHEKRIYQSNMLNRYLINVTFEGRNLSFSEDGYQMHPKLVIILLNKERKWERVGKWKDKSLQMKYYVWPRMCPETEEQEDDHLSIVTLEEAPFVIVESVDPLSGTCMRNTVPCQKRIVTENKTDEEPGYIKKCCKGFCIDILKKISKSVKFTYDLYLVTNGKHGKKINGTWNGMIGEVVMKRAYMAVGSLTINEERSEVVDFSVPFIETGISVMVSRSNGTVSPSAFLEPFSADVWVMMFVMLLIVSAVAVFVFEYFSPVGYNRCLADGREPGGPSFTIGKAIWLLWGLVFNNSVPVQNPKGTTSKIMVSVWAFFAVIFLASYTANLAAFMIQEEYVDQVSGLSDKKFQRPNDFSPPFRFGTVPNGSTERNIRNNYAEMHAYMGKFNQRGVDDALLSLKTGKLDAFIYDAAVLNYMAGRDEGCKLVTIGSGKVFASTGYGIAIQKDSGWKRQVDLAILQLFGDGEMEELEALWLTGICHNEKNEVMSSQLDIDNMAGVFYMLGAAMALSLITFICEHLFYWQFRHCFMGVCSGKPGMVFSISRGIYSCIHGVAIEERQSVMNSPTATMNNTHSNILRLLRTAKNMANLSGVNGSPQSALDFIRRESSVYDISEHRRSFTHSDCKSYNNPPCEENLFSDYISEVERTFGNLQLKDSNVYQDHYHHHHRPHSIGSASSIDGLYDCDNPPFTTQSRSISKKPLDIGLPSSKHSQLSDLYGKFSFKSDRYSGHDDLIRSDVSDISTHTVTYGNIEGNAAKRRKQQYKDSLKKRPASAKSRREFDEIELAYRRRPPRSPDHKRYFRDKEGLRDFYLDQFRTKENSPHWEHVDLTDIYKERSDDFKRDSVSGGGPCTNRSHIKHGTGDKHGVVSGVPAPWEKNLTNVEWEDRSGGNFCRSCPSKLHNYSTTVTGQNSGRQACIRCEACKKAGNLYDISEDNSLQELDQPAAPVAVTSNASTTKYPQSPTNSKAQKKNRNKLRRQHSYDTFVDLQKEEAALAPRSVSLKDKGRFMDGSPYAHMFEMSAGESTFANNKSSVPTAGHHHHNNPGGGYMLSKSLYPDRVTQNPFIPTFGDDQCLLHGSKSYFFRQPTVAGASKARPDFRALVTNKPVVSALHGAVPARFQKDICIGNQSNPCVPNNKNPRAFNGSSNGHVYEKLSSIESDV

Cn1c(=O)c2c(c3cc(Nc4ccnc(F)c4Cl)ccc31)N[C@@H](C1CC1)C(F)(F)CO2 [compound 17, (S)-10-((3-chloro-2-fluoropyridin-4-yl)amino)-2-cyclopropyl-3,3-difluoro-7-methyl-1,2,3,4-tetrahydro-[1,4]oxazepino[2,3-c]quinolin-6(7H)-one]
EC50 (NMDAR (1A/2B)): > 10 µM | Emax (NMDAR (1A/2B); NMDAR (1A/2B), Ion Channel, Opener, read-out: Max Response): 0.2% | Hill (HRH2): 1.03 | Emax (HRH2; read-out: Max Response): 65.2% | IC50 (HRH2; read-out: RC50 (IC50)): 4.76 µM | Emax (HRH1 [1]; read-out: Max Response): 0% | EC50 (HRH1 [1]; read-out: RC50 (EC50)): > 10 µM | IC50 (NAV1.5): > 10 µM | Emax (NAV1.5; NAV1.5, Ion Channel, Blocker, read-out: Max Response): 2.06% | EC50 (ADRA1A): > 10 µM | Emax (ADRA1A; ADRA1A, Calcium Flux, Agonist, read-out: Max Response): 0% | IC50 (NET): > 10 µM | Emax (NET; NET, Transporter, Blocker, read-out: Max Response): 0% | GI50 (HT): 0.545 µM | Hill (COX1): 3.28 | Emax (COX1; read-out: Max Response): 93.1% | IC50 (COX1; read-out: RC50 (IC50)): 4.54 µM | IC50 (OPRD1): > 10 µM | Emax (OPRD1; OPRD1, cAMP, Antagonist, read-out: Max Response): 46% | Emax (ADRB1; read-out: Max Response): 0% | EC50 (ADRB1; read-out: RC50 (EC50)): > 10 µM | IC50 (CHRM2): > 10 µM | Emax (CHRM2; CHRM2, cAMP, Antagonist, read-out: Max Response): 0% | IC50 (CHRM3): > 10 µM | Emax (CHRM3; CHRM3, Calcium Flux, Antagonist, read-out: Max Response): 1.21% | IC50 (HTR1B): > 10 µM | Emax (HTR1B; HTR1B, cAMP, Antagonist, read-out: Max Response): 0% | EC50 (GABAA): > 10 µM | Emax (GABAA; GABAA, Ion Channel, Opener, read-out: Max Response): 1.24% | Emax (HRH1 [2]; read-out: Max Response): 14.2% | IC50 (HRH1 [2]; read-out: RC50 (IC50)): > 10 µM

— publication PMC10150366, “Discovery of an In Vivo Chemical Probe for BCL6 Inhibition by Optimization of Tricyclic Quinolinones” (Journal of Medicinal Chemistry, 2023)
